Results taken from patent US20160144055A1, “GENE THERAPY VECTOR FOR TREATMENT OF STEROID GLAUCOMA” (priority 2009, published 2016).
“And” between values parts separate entries of the source, which are not always exact repeats. Equal values may be shown once. Read-outs that look alike come from different tables or passages of the source.

Legend:
[1] = tested on: MMP1 expression in primary HTM cells; experiment: Endogenous MMP1 expression in glucocorticoid-treated primary HTM cells (real-time TaqMan PCR); assay type: cell-based, human
Experimental: To generate primary HTM cells, the trabecular meshwork tissue was dissected from residual cornea rims after surgical corneal transplantation at the University of North Carolina Eye Clinic, Chapel Hill, N.C., United States of America. Trabecular meshworks were isolated from surrounding tissue, cut into small pieces and treated with 1 mg/ml collagenase type IV (Worthington, Lakewood, N.J., United States of America), as previously described (Vittitow et al., Mol Via 2002; 8:32-44). Cells were maintained at 37° C., 7% CO2 in MEM Richter's modification medium (HyClone, Thermo Fisher Scientific, Waltham, Mass., United States of America) supplemented with 20% FBS and 50 ug/ml gentamicin (Gibco Invitrogen, Carlsbad, Calif., United States of America). At confluency, cells were passed and maintained in the same medium but with 10% FBS (complete medium). All cells were used at passages 4 to 6. These outflow pathway cultures include cells from the three distinct regions of the trabecular meshwork plus cells lining the Schlemm's canal (SC). Because most of the cells in these cultures come from the trabecular meshwork they are commonly referred to as trabecular meshwork cells. The cells used in this study were from a person (HTM-109), a person (HTM-95), a person (HTM-106) and a person (HTM-140).
Drug treatments on the HTM cells were conducted in complete media. HTM cells were grown to pre-confluency and exposed to drugs as follows. Treatment with dexamethasone (DEX; Sigma, St. Louis, Mo., United States of America) was conducted at a final concentration of 0.1 uM. DEX was reconstituted in absolute ethanol at 0.1 mM and diluted 1,000-fold into complete media every 48 to 72 hours for the duration of the experiment. Treatment with triamcinolone acetonide (Kenacort-A; Bristol-Myers Squibb, New York, N.Y., United States of America) was performed at a final concentration of 0.1 mg/ml. Kenacort-A 40 mg/ml suspension was well mixed and diluted into complete medium 400-fold at the time of use. The concentration of 0.1 mg/ml triamcinolone acetonide was chosen because intravitreal injections of 1 mg/ml are widely used in the clinical setting, which would result in a lower concentration of the steroid in the aqueous humor. In addition, the concentration of 0.1 mg/ml has been successfully studied in trabecular meshwork cells (Fan B J et al., Invest Ophthalmol Vis Sci. 2008; 49:1886-1897). Treatment with prednisolone was conducted at a final concentration of 200 uM (80 μg/ml). Prednisolone 21-acetate (Sigma) was reconstituted in ethanol at 200 mM (80 mg/ml) as a suspension and mixed well prior dilution of 1,000-fold into the culture medium. The drugs were exposed to the cells for the period of time described in results. Untreated control dishes received the same volume of absolute ethanol (drug vehicle) under identical conditions.
HTM cells were scraped from tissue culture dishes with guanidine thiocyanate buffer (RLT, Qiagen, Valencia, Calif., United States of America). Total RNA was extracted by loading the solution onto a QIA Shredder™ column (Qiagen) and continued by the use of the RNeasy Mini kit with on-column RNase-free DNAse digestion according to manufacturer's recommendations (Qiagen). Purified RNA was eluted in 30 ul RNase-free water and concentration measured with a NanoDrop ND-100 spectrophotometer (Thermo Fisher Scientific). For the tissue, human trabecular meshworks were excised from one week RNAlater (Ambion Applied Biosystems, Austin, Tex., United States of America) immersed anterior segments. One half of the isolated trabecular meshwork tissue was homogenized on 350 μl of RLT and RNA extraction continued as described for the cells. Recoveries were between 1.4 to 2 ug of RNA per human trabecular meshwork. […]

sheep eyes = conditions: cited from earlier work
[2] = tested on: sheep eyes with triamcinolone-induced ocular hypertension; conditions: for IOP on Day 4 after bilateral sub-Tenon injection: n=4, before virus
Experimental: All animal experiments were performed in accordance with the Association for Research in Vision and Ophthalmology (ARVO) guidelines. A total of 18 healthy (female) sheep (Corriedale breed) between 12 and 24 months of age, and weighing 35 to 40 kg, were selected from a local ranch in Corrientes, Argentina for this study. The eyes and general health of the animals were considered normal by an ophthalmologist and a veterinarian, respectively. Sheep were tagged for individual identification on their ear lobes and herded from pasture whenever it was necessary to 1) topically instill prednisolone, 2) inject a sub-Tenon depot of triamcinolone acetonide, 3) inject adenoviral vectors carrying the MMP1 transgene intracamerally via the cornea, or 4) measure IOP by applanation tonometry. To apply prednisolone, the sheep were guided into a funnel corral ending in a loose-fitting yoke. This arrangement allowed movement and holding of the head by one person while another instilled the drops. To measure IOP with a Perkins tonometer, the sheep were also guided into the funnel corral and then into the neck yoke. For the sub-Tenon injection of triamcinolone, and the trans-corneal injections of adenoviral vectors, sheep were anesthetized topically. Between all procedures, the sheep were free to pasture.
In those sheep in which triamcinolone was used to induce ocular hypertension, the following general protocol was applied. Two drops of proparacaine (0.5%) were topically instilled to the ocular surface. Then, a single 1-ml injection of sterile triamcinolone acetonide (40 mg/ml, or 4%; Bristol-Myers Squibb Co., Princeton, N.J., United States of America) was administered via sub-Tenon injection using a 30G needle inserted 5 mm from the limbus.
For the injections, the distance from the limbus was determined from the width of a 5 mm×30 mm Schirmer strip that was held between the limbus and the injection site. The conjunctiva at the injection site was grasped with fine forceps and an initial oblique conjunctival puncture was made with the needle bevel facing upwards. […] The needle was pushed through Tenon's capsule until the tip reached the sclera (as determined by feel). Care was taken to avoid puncturing the sclera itself. Also, since Tenon's capsule consists of several layers, care was also taken to administer a sub-Tenon (to create a juxta-scleral depot), and not an intra-Tenon's injection. Immediately following the injection the needle was rapidly withdrawn. The volume injected (1 ml) yielded a characteristic 180°-240° quasi-donut-shaped bolus of fluid around the limbus. Each injected eye then received drops of TOBREX® (tobramycin ophthalmic solution, 0.3%, Alcon Laboratories, Inc., Fort Worth, Tex., United States of America).
Animals were led to a funnel corral and their heads were suitably oriented within a neck yoke to enable an ophthalmologist to measure IOP with the Perkins tonometer. Before the IOP measurement, 2 drops of topical 0.5% proparacaine (Alcon Argentina) followed by 2 drops of 0.25% fluorescein were instilled. Two sets of measurements were taken on each eye alternating first one eye and then the other. All IOP measurements were taken between 2 PM and 4 PM every 2 or 3 days. The Perkins tonometry readings were converted to mmHg as described in detail previously (Kass et al., Arch Ophthalmol. 2002; 120:701-713).
Details of the design, construction, characterization and titration of the steroid-inducible MMP1 adenoviruses are provided in Example 2, above. At the time of viral administration, an Eppendorf™ tube containing the frozen virus suspension was thawed in the field as the sheep were immobilized within a narrow passage ending in a yoke. Two drops of topical proparacaine 0.5% (Alcon, Argentina) were instilled on the eyes as an anesthetic. Following this 30 μl of the virus suspension was injected into the eye using a Hamilton syringe with a 28G needle.

[3] = tested on: sheep eyes treated with triamcinolone or prednisolone; experiment: IOP in sheep given triamcinolone in one eye and prednisolone in the other, with Ad vector; assay type: in vivo, sheep (Ovis aries)
Source text: After determining the baseline measurement of IOP over the course of several days, two drops of 0.5% prednisolone acetate (Ultracortenol; Novartis Ophthalmics, Hettlingen, Switzerland) was topically instilled 3-times daily at 7 AM, 2 PM, and 7 PM for durations that lasted for 10-15 days depending on the experiment. In some experiments, prednisolone was instilled bilaterally; in others only one eye received the corticosteroid.
The injection procedure took less than 30 seconds.
Additional experiments (employing 2 separate protocols, each on one sheep) tested the effects of the injection of Ad virus carrying active MMP1 transgene on the IOP of contralateral eyes treated with unilateral triamcinolone and unilateral prednisolone. In the first protocol of this set, one eye of a sheep was administered triamcinolone via a sub-Tenon injection two weeks before the start of IOP measurements. The point at which IOP measurements were initiated was designated “Day 0” of the experiment. […] After recording these measurements, thrice daily instillations of prednisolone were begun on eye OS. Three-days later, when the IOP's of both eyes were nearly identical, Ad virus carrying active MMP1 transgene was bilaterally injected into the anterior chambers of the eyes. […] At the point of virus injection, IOP of eye OD had been elevated for 17 days; after virus injection, IOP was reduced up to Day 24. […]

SMILES	MMP1 expression, RQ values (18S normalized MMP1 cDNA) ([1]; 0.1 μM DEX, 3 days, HTM-109 cells)	MMP1 expression, RQ values (18S normalized MMP1 cDNA) ([1]; 0.1 μM DEX, 6 days, HTM-109 cells)	MMP1 expression, RQ values (18S normalized MMP1 cDNA) ([1]; DEX removed from medium at 3 days, measured at day 6)	downregulation of MMP1 at the transcriptional level ([1]; DEX-treated cells for 6 days)	MMP1 cDNA levels (RQ) ([1]; 80 μg/ml, 24 hours, HTM-109 cells)	downregulation of MMP1 at the transcriptional level ([1]; shorter time periods)	IOP increase (sheep eyes; 0.5% topically three times daily, within 2 weeks)	incidence of intraocular pressure elevation in treated eyes (sheep eyes; 0.5% topically three times daily)	time for IOP to decline to baseline after discontinuation (sheep eyes; in vivo)	MMP1 cDNA levels (RQ) ([1]; 0.1 mg/ml, 12 hours, HTM-109 cells)	IOP 15 days after sub-Tenon drug injection ([2]; FIG. 9)	IOP of the fellow eyes on Day 18 ([2]; depot nearly consumed, eyes had also received Ad vectors on Day 4, n=4 each)	IOP on Day 4 after bilateral sub-Tenon injection ([2]; eyes then injected with active MMP1 vector)	IOP on Day 4 after bilateral sub-Tenon injection ([2]; eyes then injected with mutated MMP1 vector)	IOP on Day 4 after unilateral sub-Tenon injection ([2]; n=3, before null Ad injection)	time the depot subsisted in the eye as judged by IOP ([2]; sub-Tenon depot)	time the depots subsisted as determined by the IOP ([2]; sub-Tenon depot)	IOP of the triamcinolone-treated eye on Day 15 ([3]; FIGS. 11 and 12)	IOP of the eye given triamcinolone relative to fellow eye on Day 0 ([3]; sub-Tenon injection two weeks before)
C[C@@H]1C[C@H]2[C@@H]3CCC4=CC(=O)C=C[C@]4(C)[C@@]3(F)[C@@H](O)C[C@]2(C)[C@@]1(O)C(=O)CO [DEX, dexamethasone]	0.03±0.0002	0.002±0.0002	0.03±0.002	500 fold															
CC(=O)OCC(=O)[C@@]1(O)CC[C@H]2[C@@H]3CCC4=CC(=O)C=C[C@]4(C)[C@H]3[C@@H](O)C[C@@]21C [prednisolone, Prednisolone 21-acetate]					0.16±0.02	6.2 fold	approximately 2.5 fold	100%	1-3 weeks										
CC1(C)O[C@@H]2C[C@H]3[C@@H]4CCC5=CC(=O)C=C[C@]5(C)[C@@]4(F)[C@@H](O)C[C@]3(C)[C@]2(C(=O)CO)O1 [triamcinolone acetonide]						2.4 fold				0.42±0.1	less than 20 mmHg	10.5±0.4 mmHg and 12.4±0.2 mmHg	22.1±0.2 mmHg	22.6±0.8 mmHg	25.2±0.4 mmHg	14 to 20 days	2-3 weeks	above 25 mmHg	about twice that of eye OS
